Assay results reported in patent publication US5853742A, “Cosmetic compositions containing lactate dehydrogenase inhibitors” (priority 1997, dated 1998).
“And” between values parts separate entries of the source, which are not always exact repeats. Identical values can stand only once.

Experiments:
[1] = test system: Normal human epidermal keratinocytes (NHEK); test: Keratinocyte proliferation (DNA content, fluorometric); type: cell-based
Description: Normal human epidermal keratinocytes (NHEK) derived from neonatal foreskin were used for all experiments. Media were purchased from Clonetics Corp., San Diego, Calif. Cell stocks frozen in passage 2 were grown in Keratinocyte Growth Medium (KGM) and passaged when 70-80% confluent. Cells were seeded in 96 well plates (Corning) at a density of 7500 cells/well in KGM. After 24 hours, cells were rinsed and dosed with test compounds in 200 μl of Keratinocyte Basal Medium (KBM). Plates were incubated for three days at 37° C., 5% CO2. Cell proliferation was estimated by assaying for DNA content by a fluorometric method described by Rago et al. (Analytical Biochemistry, 191:31-34, 1990). Medium was removed and cells were rinsed with phosphate buffered saline solution. 100 μl of sterile distilled water was added to each well and plates were frozen at -70° C. for one and a half hours. Plates were thawed for one hour at which time 100 μl of a 20 ug/ml solution of Bisbenzimide H33258 fluorochrome (Calbiochem Corp., La Jolla, Calif.) was added to each well. The fluorochrome was prepared just prior to use in 10 mM Tris, 1 mM EDTA, 4M NaCl, pH 7.4. Plates were read in a Millipore Cytofluor fluorescent plate reader to quantify DNA (excitation 360 nm, emission 460 nm). Percent increase over control was calculated from blank-corrected readings as (treated-untreated)/(untreated)*100%.

[2] = test system: Neonatal human dermal fibroblasts; test: Collagen synthesis (secreted procollagen 1 immunoassay); type: cell-based; conditions: 0.2 to 20 mM, 48 hours, serum-free medium
Description: Neonatal human dermal fibroblasts were purchased from Clonetics Corp., San Diego, Calif. All materials for cell culture were purchased from Life Technologies, N.Y. Cells were maintained in DMEM with 10% fetal bovine serum and used in passages 5-10, Confluent 96-well plates containing fibroblasts were treated with test materials (0.2 to 20 mM) in serum-free medium for 48 hours. […] This was carried out in a BioDot SF apparatus according to the manufacturer's instructions (BioRad Labs, CA) and the blot was developed using a Vectastain Kit (PK6104, Vector Labs, CA) as per the manufacturer's directions. Color intensity was quantitated using an Ultroscan XL densitometer (Pharmacia LKB). Fold increase was calculated as (density of treated)/untreated.

## NC(=O)C(=O)O [Oxamate]
[1]; Homo sapiens, NHEK, 72 h, Table 3, oxamate 0.025 mM, read-out: % Increase Over Control (keratinocyte proliferation)
  activation at 25 µM: 20%
[1]; Homo sapiens, NHEK, 72 h, Table 3, oxamate 0.313 mM, read-out: % Increase Over Control (keratinocyte proliferation)
  activation at 313 µM: 18%
[1]; Homo sapiens, NHEK, 72 h, Table 3, oxamate 1.25 mM, read-out: % Increase Over Control (keratinocyte proliferation)
  activation at 1250 µM: 28%
[1]; Homo sapiens, NHEK, 72 h, Table 3, oxamate 20 mM, read-out: % Increase Over Control (keratinocyte proliferation)
  activation at 20000 µM: 0%
[1]; Table 3, oxamate 0.025 mM
  % Increase Over Control (keratinocyte proliferation): 19%
[1]; Table 3, oxamate 0.313 mM
  % Increase Over Control (keratinocyte proliferation): 32%
[1]; Table 3, oxamate 1.25 mM
  % Increase Over Control (keratinocyte proliferation): 24% and 40%
[1]; Table 11, oxamate 2.5 mM, pyruvate 0
  % Increase Over Control: 0%
[1]; Table 11, oxamate 5.0 mM, pyruvate 0
  % Increase Over Control: 0%
[1]; Table 11, oxamate 10 mM, pyruvate 0
  % Increase Over Control: 0%
[1]; Table 11, oxamate 15 mM, pyruvate 0
  % Increase Over Control: 0%
[1]; Table 11, oxamate 20 mM, pyruvate 0
  % Increase Over Control: 0%
[1]; Table 12, oxamate 0.313 mM, malate 0
  % Increase Over Control: 32%
[1]; Table 12, oxamate 0.625 mM, malate 0
  % Increase Over Control: 19%
[1]; Table 12, oxamate 1.25 mM, malate 0
  % Increase Over Control: 40%
[1]; Table 12, oxamate 2.5 mM, malate 0
  % Increase Over Control: 25%
[1]; Table 12, oxamate 5.0 mM, malate 0
  % Increase Over Control: 20%
[1]; Table 12, oxamate 10 mM, malate 0
  % Increase Over Control: 0%
[2]
  Maximum fold over Control (collagen synthesis): 1.4 fold
